The values that follow come from patent publication EP4603105A1, “PHARMACEUTICAL COMPOSITION CONTAINING CYCLIC COMPOUND HAVING SELECTIVE KRAS INHIBITORY EFFECT AGAINST HRAS AND NRAS” (CHUGAI SEIYAKU KABUSHIKI KAISHA, priority 2022, dated 2024).

The target in assay [1] is GDP-bound KRAS wild-type protein (Homo sapiens, UniProt P01116). The assay can be described thus: Binding to KRAS by surface plasmon resonance (SPR), dissociation constant KD. Put shortly:
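Captured GDP-RAS (~100–300 RU) was exposed to increasing compound concentrations, 75 s per step, in running buffer with 10 µM GDP, 10 mM MgCl2 and 4% DMSO at pH 7.4.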
For orientation: SPR reads the build-up and loss of mass on a sensor chip optically.

For assay [2], the target named is GDP-bound NRAS wild-type protein (Homo sapiens, UniProt P01111). In words: Binding to NRAS by surface plasmon resonance (SPR), KD and KD ratio to KRAS. The method in brief: (§1)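 SPR, 30°C: Avi-biotin RAS·GDP captured via Biotin CAPture (~100–300 RU); running buffer HBS pH 7.4, 1 mM DTT, 10 mM MgCl2, 0.01% Tween 20, 10 µM GDP, 4% DMSO. Single-cycle kinetics, 100 µL/min, 75 s injections; 1:1 model → KD.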
GDP-bound NRAS wild-type protein, sequence (P01111 whole entry): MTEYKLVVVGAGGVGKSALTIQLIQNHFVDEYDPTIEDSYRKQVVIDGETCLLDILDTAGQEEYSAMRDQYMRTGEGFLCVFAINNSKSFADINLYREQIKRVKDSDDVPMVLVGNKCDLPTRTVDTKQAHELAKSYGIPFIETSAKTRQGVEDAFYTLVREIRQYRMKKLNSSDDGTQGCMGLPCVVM

The target in the next assay is HRAS wild-type protein (Homo sapiens, UniProt P01112). The assay can be described thus: Binding to HRAS by surface plasmon resonance (SPR), KD and KD ratio to KRAS. Put shortly: as §1
HRAS wild-type protein, sequence (P01112 whole entry): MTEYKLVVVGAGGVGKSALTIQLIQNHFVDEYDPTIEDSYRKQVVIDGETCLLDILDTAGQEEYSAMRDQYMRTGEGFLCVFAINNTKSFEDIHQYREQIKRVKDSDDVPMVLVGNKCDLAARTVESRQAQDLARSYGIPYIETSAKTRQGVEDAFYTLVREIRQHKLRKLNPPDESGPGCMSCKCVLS
Assay [3] concerns human lung cancer strain NCI-H441. In kind it is cell-based. The method in brief: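 Proliferation was scored by […] measured after the reagent was added to cultures kept at 37°C in 5% carbon dioxide.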
The mark [4] stands for this setting: Single Cycle Kinetics, 1:1 binding model.
[5] abbreviates: ratio of the KD value with respect to GDP-bound NRAS wild-type protein to the KD value with respect to KRAS.
Where [6] appears, read: ratio of the KD value with respect to HRAS wild-type protein to the KD value with respect to KRAS.
The mark [7] stands for this setting: ratio of KD for GDP-bound NRAS wild-type protein to KD for KRAS.
The mark [8] stands for this setting: ratio of KD for HRAS wild-type protein to KD for KRAS.

Where a SMILES comes first, the peptide text is derived from it. Bridges are numbered along the chain shown (N, C = ends). [ ]: non-standard residue; d: D form. The star is where a group is joined. hPhe(3,5-F2-4-CF3) = N[C@@H](CCc1cc(F)c(C(F)(F)F)c(F)c1)C(=O)O; hPhe(3-Cl-4-CF3) = N[C@@H](CCc1ccc(C(F)(F)F)c(Cl)c1)C(=O)O; NPrPhe(4-CF3) = CCCN[C@@H](Cc1ccc(C(F)(F)F)cc1)C(=O)O; NPrPhe(4-Me) = CCCN[C@@H](Cc1ccc(C)cc1)C(=O)O; NMeGly(cPent) = CN[C@H](C(=O)O)C1CCCC1; αMeF = C[C@](N)(Cc1ccccc1)C(=O)O; NMeD = CN[C@@H](CC(=O)O)C(=O)O; NMeL = CN[C@@H](CC(C)C)C(=O)O; Pip = O=C(O)[C@@H]1CCCCN1; Morpholide = C1CN(*)CCO1; Ac5c = NC1(C(=O)O)CCCC1; Aze = O=C(O)[C@@H]1CCN1; NEtG = CCNCC(=O)O; Sar = CNCC(=O)O

GDP-bound KRAS wild-type protein, sequence (P01116 1-188 isoform P01116-2): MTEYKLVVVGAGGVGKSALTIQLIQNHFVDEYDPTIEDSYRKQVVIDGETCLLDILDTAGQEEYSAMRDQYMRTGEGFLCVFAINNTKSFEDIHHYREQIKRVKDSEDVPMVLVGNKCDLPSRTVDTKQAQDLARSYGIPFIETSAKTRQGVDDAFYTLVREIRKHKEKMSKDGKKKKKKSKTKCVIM

`CCO[C@@H]1C[C@H]2C(=O)NC3(CCC3)C(=O)N(C)[C@@H](C3CCCC3)C(=O)N(C)[C@H](C(=O)N3CCOCC3)CC(=O)N(C)[C@@H](CC3CCCC3)C(=O)N[C@@H]([C@@H](C)CC)C(=O)N(C)CC(=O)N(C)[C@H]3CCCCCN(C3=O)[C@@H](Cc3ccc(C(F)(F)F)cc3)C(=O)N(C)CC(=O)N[C@@H](CCc3cc(F)c(C(F)(F)F)c(F)c3)C(=O)N2C1` [PP0685] showed a Kd in assay [1] (setting [4]) of 0.8 nM. Moreover, the “NRAS /KRAS” value in assay [2] (setting [5]) was “B (a compound having 3 or more and less than 10 is denoted as B)”. In addition, the “HRAS /KRAS” value at HRAS wild-type protein (setting [6]) was “B (a compound having 3 or more and less than 10 is denoted as B)”. In addition, the IC50 in assay [3] is 52.3 nM.
`CCC[C@H]1C(=O)N[C@@H]([C@@H](C)CC)C(=O)N(C)CC(=O)N(C)[C@H]2C/C=C\CCN(C2=O)[C@@H](Cc2ccc(C)cc2)C(=O)N(C)CC(=O)N[C@@H](CCc2cc(F)c(C(F)(F)F)c(F)c2)C(=O)N2C[C@H](OCC)C[C@H]2C(=O)NC2(CC(C)(C)C2)C(=O)N(C)[C@@H](CC(C)C)C(=O)N(C)[C@H](C(=O)N(C)C)CC(=O)N1C` [PP2995] yielded a Kd in assay [1] (1:1 binding model) of 0.32 nM. Also, the “NRAS /KRAS” value in assay [2] (setting [7]) was “A (a compound having 10 or more and less than 20 is denoted as A)”. Further, the “HRAS /KRAS” value at HRAS wild-type protein (setting [8]) was “A (a compound having 10 or more and less than 20 is denoted as A)”. For the same compound, the IC50 in assay [3] came out at 12.9 nM.
As for `CCO[C@@H]1C[C@H]2C(=O)NC3(CC(C)(C)C3)C(=O)N(C)[C@@H](C3CCCC3)C(=O)N(C)[C@H](C(=O)N(C)CC)CC(=O)N(C)[C@@H]([C@@H](C)OC)C(=O)N[C@@H]([C@@H](C)CC)C(=O)N(C)CC(=O)N(C)[C@H]3C/C=C\CCN(C3=O)[C@@H](Cc3ccc(C(F)(F)F)cc3)C(=O)N(C)CC(=O)N[C@@H](CCc3ccc(C(F)(F)F)c(OC)c3)C(=O)N2C1` [PP3158], binding in assay [1] (1:1 binding model) was characterised by a dissociation constant (Kd) of 0.076 nM. The “NRAS /KRAS” value in assay [2] (setting [7]) was “A (a compound having 10 or more and less than 20 is denoted as A)”. Also, on HRAS wild-type protein (setting [8]), the “HRAS /KRAS” value was “A (a compound having 10 or more and less than 20 is denoted as A)”. In assay [3], this compound came in with an IC50 of 9.7 nM.
`CCCN1C(=O)[C@@H]2CCN2C(=O)[C@@H]2CCCCN2C(=O)[C@H]([C@@H](C)CC)NC(=O)[C@H](CC(C)C)N(C)C(=O)C[C@@H](C(=O)N2CCOCC2)N(C)C(=O)[C@H](C2CCCC2)N(C)C(=O)C2(CCCC2)NC(=O)[C@@H]2CCCN2C(=O)[C@H](CCc2ccc(C(F)(F)F)c(Cl)c2)NC(=O)CN(C)C(=O)[C@@H]1Cc1ccc(C)cc1` [PP0070] ([NMeL]I[Pip][Aze][NPrPhe(4-Me)][Sar][hPhe(3-Cl-4-CF3)]P[Ac5c][NMeGly(cPent)][NMeD]-Morpholide; lactam N-11) displayed a Kd in assay [1] (1:1 binding model) of 0.16 nM. The “NRAS /KRAS” value in assay [2] (setting [7]) is “C (A compound having a KD ratio of 0.1 or more and less than 3 is denoted as C)”. The “HRAS /KRAS” value on HRAS wild-type protein (setting [8]) is “B (a compound having 3 or more and less than 10 is denoted as B)”. In assay [3], this compound gave an IC50 of 2.1 nM.
In assay [1] (setting [4]), `CC[C@H](C)[C@@H]1NC(=O)[C@H](CC2CC2)N(C)C(=O)C[C@@H](C(=O)N(C)CC)N(C)C(=O)[C@H](C2CCCC2)N(C)C(=O)C2(CC(C)(C)C2)NC(=O)[C@@H]2C[C@H](C)CN2C(=O)[C@H](CCc2ccc(C(F)(F)F)c(OC)c2)NC(=O)CN(C)C(=O)[C@H](Cc2ccc(C)cc2)N2CC/C=C\C[C@@H](C2=O)N(C)C(=O)CN(C)C1=O` [PP1899] registered a Kd of 0.12 nM. The “NRAS /KRAS” value in assay [2] (setting [5]) was “A (a compound having 10 or more and less than 20 is denoted as A)”. Besides, the “HRAS /KRAS” value at HRAS wild-type protein (setting [6]) is “B (a compound having 3 or more and less than 10 is denoted as B)”. In assay [3], this compound came in with an IC50 of 15.1 nM.
As to `CCC[C@H]1C(=O)N[C@@H]([C@@H](C)CC)C(=O)N(C)CC(=O)N(C)[C@H]2C/C=C\CCN(C2=O)[C@@H](Cc2ccc(C)cc2)C(=O)N(C)CC(=O)N[C@@H](CCc2ccc(C(F)(F)F)c(OC)c2)C(=O)N2CC3(CC3)C[C@H]2C(=O)NC2(CC(C)(C)C2)C(=O)N(C)[C@@H](CC(C)(C)C)C(=O)N(C)[C@H](C(=O)N(C)C)CC(=O)N1C` [PP3009], binding in assay [1] (1:1 binding model) was characterised by a dissociation constant (Kd) of 0.073 nM. Moreover, the “NRAS /KRAS” value in assay [2] (setting [7]) was “A (a compound having 10 or more and less than 20 is denoted as A)”. Moreover, on HRAS wild-type protein (setting [8]), the “HRAS /KRAS” value is “A (a compound having 10 or more and less than 20 is denoted as A)”. The same compound had an IC50 in assay [3] of 7.7 nM.
In assay [1] (1:1 binding model), `CCCN1C(=O)CN(C)C(=O)CN(CC)C(=O)[C@H]([C@@H](C)CC)NC(=O)[C@H](CC(C)C)N(C)C(=O)C[C@@H](C(=O)N2CCOCC2)N(C)C(=O)[C@H](C2CCCC2)N(C)C(=O)C2(CCCC2)NC(=O)[C@@H]2CCCCN2C(=O)[C@H](CCc2ccc(C(F)(F)F)c(Cl)c2)NC(=O)CN(C)C(=O)[C@@H]1Cc1ccc(C(F)(F)F)cc1` [PP0297] ([NMeL]I[NEtG][Sar][NPrPhe(4-CF3)][Sar][hPhe(3-Cl-4-CF3)][Pip][Ac5c][NMeGly(cPent)][NMeD]-Morpholide; lactam N-11) had a Kd of 2.3 nM. Further, the “NRAS /KRAS” value in assay [2] (setting [7]) was “B (a compound having 3 or more and less than 10 is denoted as B)”. Also, the “HRAS /KRAS” value at HRAS wild-type protein (setting [8]) is “C (A compound having a KD ratio of 0.1 or more and less than 3 is denoted as C)”. Moreover, the half-inhibitory concentration (IC50) in assay [3] worked out at 74.3 nM.
In assay [1] (Single Cycle Kinetics), `CCCN1C(=O)CN(C)C(=O)[C@@H]2CCN2C(=O)[C@H]([C@@H](C)CC)NC(=O)[C@H](CC(C)C)N(C)C(=O)C[C@@H](C(=O)N2CCOCC2)N(C)C(=O)[C@H](C2CCCC2)N(C)C(=O)[C@](C)(Cc2ccccc2)NC(=O)[C@@H]2CCCN2C(=O)[C@H](CCc2cc(F)c(C(F)(F)F)c(F)c2)NC(=O)CN(C)C(=O)[C@@H]1Cc1ccc(C(F)(F)F)cc1` [PP0778] ([NMeL]I[Aze][Sar][NPrPhe(4-CF3)][Sar][hPhe(3,5-F2-4-CF3)]P[αMeF][NMeGly(cPent)][NMeD]-Morpholide; lactam N-11) came in with a Kd of 10 nM. Further, in assay [2] (setting [7]), the “NRAS /KRAS” value is “B (a compound having 3 or more and less than 10 is denoted as B)”. Also, the “HRAS /KRAS” value at HRAS wild-type protein (setting [8]) was “B (a compound having 3 or more and less than 10 is denoted as B)”. This compound also came in with an IC50 in assay [3] of 546 nM.
Regarding `CCC[C@H]1C(=O)N[C@@H](C(CC)CC)C(=O)N(C)CC(=O)N(C)[C@H]2C/C=C\CCN(C2=O)[C@@H](Cc2ccc(C)cc2)C(=O)N(C)CC(=O)N[C@@H](CCc2ccc(C(F)(F)F)c(Cl)c2)C(=O)N2C[C@H](OCC)C[C@H]2C(=O)NC2(CC(C)(C)C2)C(=O)N(C)[C@@H](CC(C)C)C(=O)N(C)[C@H](C(=O)N(C)C)CC(=O)N1C` [PP2202], the Kd in assay [1] (setting [4]) amounted to 4.9 nM. For the same compound, the “NRAS /KRAS” value in assay [2] (setting [5]) is “A (a compound having 10 or more and less than 20 is denoted as A)”. In addition, on HRAS wild-type protein (setting [6]), the “HRAS /KRAS” value was “A (a compound having 10 or more and less than 20 is denoted as A)”. Further, the midpoint of inhibition in assay [3], the IC50, lay at 94.7 nM.
In turn, `CCCOC[C@H]1C(=O)N[C@@H]([C@@H](C)CC)C(=O)N(C)CC(=O)N(C)[C@H]2C/C=C\CCN(C2=O)[C@@H](Cc2ccc(C(F)(F)F)cc2)C(=O)N(C)CC(=O)N[C@@H](CCc2ccc(Cl)c(Cl)c2)C(=O)N2C[C@H](OCC)C[C@H]2C(=O)NC2(CCC2)C(=O)N(C)[C@@H](C2CCCC2)C(=O)N(C)[C@H](C(=O)N(C)CCC)CC(=O)N1C` [PP2830] showed a Kd in assay [1] (1:1 binding model) of 0.37 nM. In addition, the “NRAS /KRAS” value in assay [2] (setting [7]) was “A (a compound having 10 or more and less than 20 is denoted as A)”. Also, on HRAS wild-type protein (setting [8]), the “HRAS /KRAS” value is “A (a compound having 10 or more and less than 20 is denoted as A)”. Further, in assay [3], the IC50 amounted to 28.8 nM.

What is called Kd is the equilibrium constant for the complex coming apart. Low readings indicate a tighter complex, high ones a looser complex. The IC50 is the concentration that inhibits the measured activity by half. Low values mean higher potency, high ones lower potency.
